According to patent US6576669B2 (Boehringer Ingelheim Pharma KG, priority 2001, dated 2003):

Test system: muc-5AC RNA
Test: Biochemical study: Pseudomonas aeruginosa LPS aerosol-induced muc-5AC RNA in rat trachea (TaqMan real time PCR)
Type: in vivo
Conditions: 3 mg/kg p.o. 6 hours before LPS aerosol, trachea taken 20 hours after exposure, compared with vehicle pre-treatment
Protocol: Two different rat strains, BDE and F344/NHsd, were tested because previous studies had shown strain-related differences in reactivity to lipopolysaccharides.
Animals Used: Adult male rats, strain BDE/Han, average weight about […] (range 340 g to 450 g), and adult male F344/NHsd rats, average weight about 250 g (range 240 g to 260g).
Animal Maintenance: The rats were housed in air-conditioned rooms, at 21° C.-25° C., relative humidity between 50% and 65%, day-night cycle 12 hours. They were fed before the start of the experiment and received tap water ad lib. 18 hours prior to drug administration, food was withdrawn, but drinking water remained available.
The compound of formula (I), namely carbamic acid, [[4-[[3-[[4-[1-(4-hydroxyphenyl)-1-methylethyl]phenoxy]methyl]phenyl]methoxy]phenyl]iminomethyl]ethyl ester, was synthesized as described in the International Patent Application WO 96/02497 and jet milled. For administration to animals, the compound of formula (I) was first dissolved in LABRASOL® and a 7% emulsion was then prepared of this LABRASOL® solution in distilled water (homogenized). […]
Extraction and Quantitation of RNA: Total RNA was isolated with the RNeasy system (Qiagen, Germany). […] Quantitation of muc-5AC RNA was performed by the TAQMAN® real time PCR system using an ABI Prism 7700 Detector (Perkin Elmer Corporation, California USA). […]

CCOC(=O)/N=C(\N)c1ccc(OCc2cccc(COc3ccc(C(C)(C)c4ccc(O)cc4)cc3)c2)cc1 [compound (I)]
increase in tracheal epithelial expression of the muc-5AC gene (relative to 18S ribosomal RNA) after Pseudomonas aeruginosa aerosol (BDE strain rats, p=0.003): reduced this increase to less than half the value with only vehicle pre-treatment | increase in tracheal epithelial expression of the muc-5AC gene (relative to 18S ribosomal RNA) after Pseudomonas aeruginosa aerosol (F344 strain rats, p=0.010): reduced this increase to less than half the value with only vehicle pre-treatment
